Data as given in patent publication US20240158350A1, “ESTER ANALOGS OF PSILOCIN, PROCESSES FOR THE PREPARATION THEREOF, AND METHODS OF USE” (Invyxis, Inc., priority 2022, published 2024).
Where two headings read alike, the source gives them in different places.

Tests used:
[1] = target: human serotonin 5HT2A receptor (Homo sapiens, UniProt P28223); experiment: 5HT2A receptor radioligand displacement assay; design: key to the marks not given beside the values; settings: displacement of [3H]-ketanserin or [3H]-LSD, HEK293 membranes
human serotonin 5HT2A receptor, sequence (P28223 whole entry): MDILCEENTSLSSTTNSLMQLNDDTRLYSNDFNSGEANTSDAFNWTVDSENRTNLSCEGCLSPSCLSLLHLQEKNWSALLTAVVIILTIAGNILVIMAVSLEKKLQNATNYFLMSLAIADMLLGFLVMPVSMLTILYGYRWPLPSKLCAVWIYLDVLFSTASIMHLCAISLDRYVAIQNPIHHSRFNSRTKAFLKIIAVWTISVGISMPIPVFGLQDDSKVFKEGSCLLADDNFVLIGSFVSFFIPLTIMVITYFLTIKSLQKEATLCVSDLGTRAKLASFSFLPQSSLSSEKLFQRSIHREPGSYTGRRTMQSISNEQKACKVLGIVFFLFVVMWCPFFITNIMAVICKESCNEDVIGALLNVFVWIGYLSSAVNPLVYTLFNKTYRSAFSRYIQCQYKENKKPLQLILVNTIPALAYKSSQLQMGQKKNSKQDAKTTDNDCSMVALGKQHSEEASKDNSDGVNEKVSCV

[2] = IP-One incubation stability (cell-treated stimulation medium, LC-MS); format: in vitro ADME; settings: 2 μM, 60 min vs T0, 37° C., medium on CHO-K1 cells expressing 5-HT2A
Experimental: IP-One incubation. CHO-K1 cells expressing recombinant Serotonin receptor 5-HT2A (Perkin Elmer, Waltham, MA), were seeded in 96-well plates (˜80,000 cells/well) and treated with 28 μL (per well) of stimulation medium (IP-One HTRF® kit) containing test compounds (2 μM) for 1 hr in a CO2 incubator (5%) at 37° C. The cell-treated medium from 3 wells were pooled together to provide 40 μL for LC-MS analysis. Aliquots for each compound were collected at time zero (T0, 100% intact test compound) and 60-min. The incubated medium (40 μL) was quenched with 120 μL of acetonitrile containing 0.5 μM glyburide (IS), and the supernatant was collected by centrifugation (2500 rpm, 15 min.). LC-MS was performed using an Agilent MSD (electrospray in positive ionization) equipped with a Kinetic C18 reverse-column. The percent of test compound remaining is calculated using the ratio of the peak areas of intact test compound at 60 min. over T0. The percent of psilocin release is calculated by comparing the peak area of psilocin at 60 min. (for test compound) vs. peak area at T0 (2 μM psilocin). Results are summarized in Table 1, (rel to % parent detected; and % psilocin detected at 1 hr).

[3] = Stability in fasted state simulated gastric fluid (FaSSGF); format: in vitro ADME; settings: 37° C., 60 min vs T0
Experimental: Fasted state simulated gastric fluid (FaSSGF). FaSSGF was prepared according to the manufacturer instructions (Biorelevant, UK). Test compounds (2 μL of 200 μM solution) were added to a 96-well plate containing 198 μL FaSSGF per well. The mixture was incubation in a thermomixer at 37° C. for 60 min. Sample aliquots were removed (40 μL, from T0 and 60 min.) and quenched with acetonitrile containing 0.5 μM glyburide (IS), and the supernatant collected by centrifugation (2500 rpm, 15 min.). LC-MS was performed using an Agilent MSD (electrospray in positive ionization) equipped with a Kinetic C18 reverse-column. The percent of test compound remaining was calculated using the ratio of the peak area of intact test compound at 60 min. over T0. The percent of psilocin release was calculated by comparing the peak area of psilocin at 60 min, (for test compound) vs. peak area at T0 (2 μM psilocin).

[4] = Single-dose oral pharmacokinetics in C57BL6 mice (plasma and brain); format: in vivo; settings: for Cmax: read-out: Parent PK Cmax
Experimental: The single-dose pharmacokinetics of test compounds were analyzed relative to control (psilocin) in C57BL6 mice via oral (PO) administration. Test compound was dissolved in DMSO and transferred to a 15-mL tube, followed by addition of Tween-80, PEG-400, and water to final volume. The resulting formulation (0.3 mg/mL compound, in DMSO (1%), Tween-80 (5%), and PEG-400 (25%) in water (69%)) was vortexed for 2 min. and mixed by inversion.
Male C57BL6 mice (3× per compound, (at a weight ˜20g)) received a single dose (oral) of test compound at 3.0 mg/kg. Blood samples were collected pre-dose and at 0.083, 0.25, 0.5, 1, 2, 4, 8, 24-hour post-dose to yield approximately 20 μL of pooled plasma (3× mice) per time point. Brain tissues were collected at 2- and 8-hr post-dose. Brain was flushed with saline solution using a perfusion needle through the ascending aorta of the ventricle to remove any remaining blood prior to collection. Plasma and brain homogenate samples were stored at −80° C. prior to extraction for LC-MS/MS analysis.
Samples were analyzed by LC-MS/MS to quantify the amounts of test compound and control (psilocin). The calculation of the pharmacokinetic (PK) parameters (AUCt, AUCinf, Cmax, Tmax, T1/2, and Kel) can be performed using a non-compartmental analysis (trapezoidal method).

[5] = male, C57BL6, mouse, parent compound in brain, 2 h post-dose, 3.0 mg/kg PO, read-out: Parent PK [brain] 2 h
[6] = male, C57BL6, mouse, parent compound in plasma, 3.0 mg/kg PO

Row | Structure (SMILES) | Activity relative to psilocin [1] | % parent compound [2] | % parent compound [3] | further results
1 | CN(C)CCc1c[nH]c2cccc(O)c12 [Psilocin, 4-hydroxy-N,N-dimethyltryptamine] | ++ | 87.4% | 72.2% | psilocin in the brain at 8-h post-dose ([4]; 8-h post-dose): No psilocin in the brain was detected; psilocin plasma concentration (estimate) ([4]; estimate based on other pharmacokinetic data): ~5 ng/mL; concentration at 2 h ([4]; male, C57BL6, mouse, brain, oral, 3 mg/kg, 2-h post-dose, range over animals, read-out: Psilocin concentration in the brain): 40 to 78 ng/g; Kp at 2 h ([4]; male, C57BL6, mouse, brain, oral, 3 mg/kg, 2-h post-dose, with estimated plasma concentration of 5 ng/mL, read-out: mean brain/plasma (B/P) ratio): 11.2 ± 4.3; concentration at 2 h [4, 5]: 54 ng/mL; Cmax [4, 6]: ~5 ng/mL
2 | CN(C)CCc1c[nH]c2cccc(OC(=O)C(C)(C)C(=O)Oc3cccc4[nH]cc(CCN(C)C)c34)c12 [Test Compound A, bis(3-(2-(dimethylamino)ethyl)-1H-indol-4-yl) 2,2-dimethylmalonate] | – | – | – | PK profile (absorption, elimination) ([4]; 3.0 mg/kg PO, in words): quick absorption of the compound, but with a long elimination phase; brain penetration of the parent compound ([4]; 3.0 mg/kg PO, in words): delayed brain penetration of the parent compound; concentration at 2 h [4, 5]: 0.5 ng/mL; AUC ([4]; male, C57BL6, mouse, parent compound in plasma, 3.0 mg/kg PO, read-out: Parent PK AUC): 39 ng·h/mL; Cmax [4, 6]: 4.2 ng/mL; Parent [brain] at 8 h ([4]; parent compound in brain, 8 h post-dose (footnote)): **[brain] at 8 h is 6 ng/mL.
3 | CN(C)CCc1c[nH]c2cccc(OC(=O)CCCC(=O)Oc3cccc4[nH]cc(CCN(C)C)c34)c12 [Test Compound B, bis(3-(2-(dimethylamino)ethyl)-1H-indol-4-yl) glutarate] | – | – | – | PK profile (absorption, elimination) ([4]; 3.0 mg/kg PO, in words): good PK profile as a psilocin prodrug; parent compound detected in plasma or brain samples ([4]; 3.0 mg/kg PO, in words): no parent compound was detected in any of the plasma or brain samples; concentration at 2 h [4, 5]: 0 ng/mL; psilocin detected after administration of test compound ([4]; plasma and brain, in words): psilocin was detected in quantifiable amounts
4 | CN(C)CCc1c[nH]c2cccc(OC(=O)CCC(=O)Oc3cccc4[nH]cc(CCN(C)C)c34)c12 [drawing 41] | – | 61.7% | – | –
5 | CN(C)CCc1c[nH]c2cccc(OC(=O)c3ccc(Br)cc3)c12 [drawing 42] | – | 9.1% | – | –
6 | CN(C)CCc1c[nH]c2cccc(OC(=O)C(C)(C)C(=O)Oc3cccc4[nH]cc(CCN(C)C)c34)c12 [drawing 43] | – | 86.8% | – | –
7 | CN(C)CCc1c[nH]c2cccc(OC(=O)CCCC(=O)Oc3cccc4[nH]cc(CCN(C)C)c34)c12 [drawing 44] | – | 71.5% | – | –
8 | CN(C)CCc1c[nH]c2cccc(OC(=O)c3cccc(C(=O)Oc4cccc5[nH]cc(CCN(C)C)c45)c3)c12 [drawing 45] | – | 52.1% | – | –
9 | CN(C)CCc1c[nH]c2cccc(OC(=O)[C@H]3C[C@@H]3C(=O)Oc3cccc4[nH]cc(CCN(C)C)c34)c12 [drawing 46] | – | 76.1% | – | –
10 | CN(C)CCc1c[nH]c2cccc(OC(=O)c3ccccc3F)c12 [drawing 47] | – | 11.4% | – | –
11 | CN(C)CCc1c[nH]c2cccc(OC(=O)CCC(=O)Oc3cccc4[nH]cc(CCN(C)C)c34)c12 [drawing 49] | – | – | 97.1% | –
12 | CN(C)CCc1c[nH]c2cccc(OC(=O)c3ccc(Br)cc3)c12 [drawing 50] | – | – | 93.8% | –
13 | CN(C)CCc1c[nH]c2cccc(OC(=O)C(C)(C)C(=O)Oc3cccc4[nH]cc(CCN(C)C)c34)c12 [drawing 51] | – | – | 94.7% | –
14 | CN(C)CCc1c[nH]c2cccc(OC(=O)CCCC(=O)Oc3cccc4[nH]cc(CCN(C)C)c34)c12 [drawing 52] | – | – | 94.5% | –
15 | CN(C)CCc1c[nH]c2cccc(OC(=O)c3cccc(C(=O)Oc4cccc5[nH]cc(CCN(C)C)c45)c3)c12 [drawing 53] | – | – | 93.5% | –
16 | CN(C)CCc1c[nH]c2cccc(OC(=O)[C@H]3C[C@@H]3C(=O)Oc3cccc4[nH]cc(CCN(C)C)c34)c12 [drawing 54] | – | – | 95.5% | –
17 | CN(C)CCc1c[nH]c2cccc(OC(=O)c3ccccc3F)c12 [drawing 55] | – | – | 97.5% | –
18 | CN(C)CCc1c[nH]c2cccc(OC(=O)CCC(=O)Oc3cccc4[nH]cc(CCN(C)C)c34)c12 [drawing 57] | +++ | – | – | –
19 | CN(C)CCc1c[nH]c2cccc(OC(=O)c3ccc(Br)cc3)c12 [drawing 58] | ++ | – | – | –
20 | CN(C)CCc1c[nH]c2cccc(OC(=O)C(C)(C)C(=O)Oc3cccc4[nH]cc(CCN(C)C)c34)c12 [drawing 59] | +++ | – | – | –
21 | CN(C)CCc1c[nH]c2cccc(OC(=O)CCCC(=O)Oc3cccc4[nH]cc(CCN(C)C)c34)c12 [drawing 60] | +++ | – | – | –
22 | CN(C)CCc1c[nH]c2cccc(OC(=O)c3cccc(C(=O)Oc4cccc5[nH]cc(CCN(C)C)c45)c3)c12 [drawing 61] | +++ | – | – | –
23 | CN(C)CCc1c[nH]c2cccc(OC(=O)[C@H]3C[C@@H]3C(=O)Oc3cccc4[nH]cc(CCN(C)C)c34)c12 [drawing 62] | +++ | – | – | –
24 | CN(C)CCc1c[nH]c2cccc(OC(=O)c3ccccc3F)c12 [drawing 63] | ++ | – | – | –
